Test [1] concerns HeLa cells. The test can be described thus: Cell viability by MTS assay. In kind it is cell-based. The following applies: 10 μg/mL, FIG. 10. As to the method: HeLa cells were used as a model cancer cell for cytotoxicity evaluation. Trypsinized HeLa cells were seeded onto 48-well tissue culture polystyrene (TCPS) plates at 10,000 cells cm^−2. Cells were then cultured in Dulbecco's Modified Eagle's Medium (DMEM) supplemented with FBS, 100 U/mL penicillin, 2 mM L-glutamine, and 0.1 mg/mL streptomycin for 24 h to allow adhesion. To evaluate the cytotoxicity of PEG-Fu-DiTT polymersomes, empty samples without loaded drugs were prepared, dialyzed against phosphate-buffered saline (PBS) for 2 days, and lyophilized for 3 days. The dried polymersomes were then incubated with HeLa cells at concentrations of 0.1, 0.5, 1.0 and 2.0 mg/mL for 3 days. Wells seeded with the same HeLa cell density but without added polymersomes were used as positive controls. The relative cell densities in each group were determined by MTS assay (CellTiter 96 Aqueous One Solution, Promega, Madison, Wis.) by comparing the optical density (OD) value to that of positive controls (which were set at 100% cell density). To evaluate the cancer killing effect, similar cell culture procedures were used by adding DOX-loaded polymersomes or free drugs at concentrations of 0.01, 0.1, 0.5, 1, 5, 10 and 50 μg/mL.
In general terms: Tetrazolium assays rely on reduction of a dye to a coloured formazan, in cell work by metabolically active cells.

The subject of test [2] is HeLa cells. In words: Cellular uptake by DOX fluorescence imaging. It is filed as cell-based. The following applies: 10 μg/mL. As to the method:
HeLa cells were co-cultured with DOX-loaded polymersomes in DMEM at a drug concentration of 10 μg/mL, as described in Example 6. At time points of 1, 2, 4 hours, the culture medium was removed and cells were washed with PBS three times and then fixed in 4% paraformaldehyde. After 10 min, paraformaldehyde was removed and cells were washed three times with PBS then stained with DAPI (4′,6-diamidino-2-phenylindole) for 2 min. DOX fluorescence from polymersomes and DAPI fluorescence from cellular nuclei were visualized and photographed by Axiovert 25 Zeiss light microscope. DOX fluorescence from polymersomes appeared red, and DAPI fluorescence from cellular nuclei appeared blue.
Cellular uptake of DOX-PS particles were investigated through imaging of DOX fluorescence after 1, 3 and 5 hours of co-culture with HeLa cells. […] The first, second, and third rows correspond to incubation times of 1, 3, and 5 hours respectively.

As to `COc1cccc2c1C(=O)c1c(O)c3c(c(O)c1C2=O)C[C@@](O)(C(=O)CO)C[C@@H]3O[C@H]1C[C@H](N)[C@H](O)[C@H](C)O1` [unencapsulated DOX, doxorubicin], in the test with HeLa cells [1], the “effect on cancer cell viability” value is listed as “inhibition effect”. Also, the “DOX fluorescence in cells” value is given as “red fluorescence” in the test with HeLa cells [2] (1 hour), “slight increase in intensity” in the test with HeLa cells [2] (3 hour) and “slight increase in intensity” in the test on HeLa cells [2] (5 hour).

Source of the values: patent publication US11040009B2, “Expansile crosslinked polymersome for ph-sensitive delivery of anticancer drugs” (Mayo Foundation for Medical Education and Research, priority 2016, dated 2021).
